Results: patent US11285127B2, “Compositions and methods for lowering triglycerides without raising LDL-C levels in a subject on concomitant statin therapy” (Amarin Pharmaceuticals Ireland Limited, priority 2013, dated 2022)

Test system: patients with fasting triglyceride levels >200 mg/dl and <500 mg/dl despite statin therapy
Assay: 12-week study: lipoprotein particle concentration (VLDL, LDL, HDL; nuclear magnetic resonance)
Assay type: in vivo, human
Source text: Parameters (a)-(z) can be measured in accordance with any clinically acceptable methodology. For example, triglycerides, total cholesterol, HDL-C and fasting blood sugar can be sample from serum and analyzed using standard photometry techniques. VLDL-TG, LDL-C and VLDL-C can be calculated or determined using serum lipoprotein fractionation by preparative ultracentrifugation and subsequent quantitative analysis by refractometry or by analytic ultracentrifugal methodology. Apo A1, Apo B and hsCRP can be determined from serum using standard nephelometry techniques. Lipoprotein (a) can be determined from serum using standard turbidimetric immunoassay techniques. LDL particle number and particle size can be determined using nuclear magnetic resonance (NMR) spectrometry. Remnants lipoproteins and LDL-phospholipase A2 can be determined from EDTA plasma or serum and serum, respectively, using enzymatic immunoseparation techniques. Oxidized LDL, intercellular adhesion molecule-1 and interleukin-2 levels can be determined from serum using standard enzyme immunoassay techniques. These techniques are described in detail in standard textbooks, for example Tietz Fundamentals of Clinical Chemistry, 6th Ed. (Burtis, Ashwood and Borter Eds.), WB Saunders Company.
A multi-center, placebo-controlled, randomized, double-blind, 12-week study was performed to evaluate the efficacy and safety of >96% E-EPA in patients with fasting triglyceride levels >200 mg/dl and <500 mg/dl despite statin therapy (the mean of two qualifying entry values needed to be >185 mg/dl and at least one of the values needed to be >200 mg/dl). The primary objective of the study was to determine the efficacy of >96% E-EPA 2 g daily and 4 g daily, compared to placebo, in lowering fasting TG levels in patients with high risk for cardiovascular disease and with fasting TG levels 200 mg/dl and <500 mg/dl, despite treatment to LDL-C goal on statin therapy.
The secondary objectives of this study were the following: • 1. To determine the safety and tolerability of >96% E-EPA 2 g daily and 4 g daily; • 2. To determine the effect of >96% E-EPA on lipid and apolipoprotein profiles including total cholesterol (TC), non-high-density lipoprotein cholesterol (non-HDL-C), low density lipoprotein cholesterol (LDL-C), high density lipoprotein cholesterol (HDL-C), and […]; • 3. To determine the effect of >96% E-EPA on lipoprotein associated phospholipase A2 (Lp-PLA2) from baseline to week 12; • 4. To determine the effect of >96% E-EPA on low-density lipoprotein (LDL) particle number and size; • 5. To determine the effect of >96% E-EPA on oxidized LDL; • 6. To determine the effect of >96% E-EPA on fasting plasma glucose (FPG) and hemoglobin A1c (HbA1c); • 7. To determine the effect of >96% E-EPA on insulin resistance; • 8. To determine the effect of >96% E-EPA on high-sensitivity C-reactive protein (hsCRP); • 9. To determine the effects of >96% E-EPA 2 g daily and 4 g daily on the incorporation of fatty acids into red blood cell membranes and into plasma phospholipids; • 10. To explore the relationship between baseline fasting TG levels and the reduction in fasting TG levels; and • 11. To explore the relationship between changes of fatty acid concentrations in plasma and red blood cell membranes, and the reduction in fasting TG levels.
The primary efficacy variable for the double-blind treatment period was percent change in TG from baseline to Week 12 endpoint. […]

[1] = IPE 4 g/day (n = 216), 12 weeks
[2] = IPE 4 g/day (n = 216); 12 weeks
[3] = IPE 4 g/day (n = 216); 12 weeks; IDL (23-29 nm)
[4] = IPE 4 g/day (n = 216); 12 weeks; large HDL (9.4-14.0 nm)
[5] = IPE 4 g/day (n = 216); 12 weeks; large LDL (20.5-23.0 nm)
[6] = IPE 4 g/day (n = 216); 12 weeks; large VLDL (>60 nm)
[7] = IPE 4 g/day (n = 216); 12 weeks; medium HDL (8.2-9.4 nm)
[8] = IPE 4 g/day (n = 216); 12 weeks; medium VLDL (42-60 nm)
[9] = IPE 4 g/day (n = 216); 12 weeks; small HDL (7.3-8.2 nm)
[10] = IPE 4 g/day (n = 216); 12 weeks; small LDL (18.0-20.5 nm)
[11] = IPE 4 g/day (n = 216); 12 weeks; small VLDL (29-42 nm)
[12] = IPE 4 g/day vs placebo; 12 weeks; Hodges-Lehmann median

## CC/C=C\C/C=C\C/C=C\C/C=C\C/C=C\CCCC(=O)OCC [AMR101, ethyl eicosapentaenoate]
IPE 2 g/day (n = 222), 12 weeks
  Total VLDL particle concentration, End of Treatment (median): 122.4 nmol/L
[1]
  IDL particle concentration, Change from Baseline % (median): 23.7%
  IDL particle concentration, End of Treatment (median): 63.0 nmol/L
  Large HDL particle concentration, Change from Baseline % (median): −21.6%
  Large HDL particle concentration, End of Treatment (median): 1.9 µmol/L
  Large LDL particle concentration, Change from Baseline % (median): 55.2%
  Large LDL particle concentration, End of Treatment (median): 172.5 nmol/L
  Large VLDL particle concentration, Change from Baseline % (median): −41.9%
  Large VLDL particle concentration, End of Treatment (median): 7.7 nM
  Medium HDL particle concentration, Change from Baseline % (median): 4.2%
  Medium HDL particle concentration, End of Treatment (median): 6.9 µmol/L
  Medium VLDL particle concentration, Change from Baseline % (median): −6.9%
  Medium VLDL particle concentration, End of Treatment (median): 49.7 nmol/L
  Small HDL particle concentration, Change from Baseline % (median): −3.9%
  Small HDL particle concentration, End of Treatment (median): 23.1 µmol/L
  Small LDL particle concentration, Change from Baseline % (median): −1.1%
  Small LDL particle concentration, End of Treatment (median): 902.5 nmol/L
  Small VLDL particle concentration, Change from Baseline % (median): 8.3%
  Small VLDL particle concentration, End of Treatment (median): 46.8 nmol/L
  Total HDL particle concentration, Change from Baseline % (median): −4.0%
  Total HDL particle concentration, End of Treatment (median): 32.6 µmol/L
  Total LDL particle concentration, Change from Baseline % (median): 3.8%
  Total LDL particle concentration, End of Treatment (median): 1191 nmol/L
  Total VLDL particle concentration, Change from Baseline % (median): −2.5%
  Total VLDL particle concentration, End of Treatment (median): 110.0 nmol/L
[2]
  Total HDL particle concentration, Change from Baseline % (median): −4.0%
  Total HDL particle concentration, End of Treatment (median): 32.6 μmon/L
  Total LDL particle concentration, Change from Baseline % (median): 3.8%
  Total LDL particle concentration, End of Treatment (median): 1191 nmol/L
  Total VLDL particle concentration, Change from Baseline % (median): −2.5%
  Total VLDL particle concentration, End of Treatment (median): 110.0 nmol/L
[3]
  IDL particle concentration, Change from Baseline % (median): 23.7%
  IDL particle concentration, End of Treatment (median): 63.0 nmol/L
[4]
  Large HDL particle concentration, Change from Baseline % (median): −21.6%
  Large HDL particle concentration, End of Treatment (median): 1.9 μmon
[5]
  Large LDL particle concentration, Change from Baseline % (median): 55.2%
  Large LDL particle concentration, End of Treatment (median): 172.5 nmol/L
[6]
  Large VLDL particle concentration, Change from Baseline % (median): −41.9%
  Large VLDL particle concentration, End of Treatment (median): 7.7 nM
[7]
  Medium HDL particle concentration, Change from Baseline % (median): 4.2%
  Medium HDL particle concentration, End of Treatment (median): 6.9 μmon/L
[8]
  Medium VLDL particle concentration, Change from Baseline % (median): −6.9%
  Medium VLDL particle concentration, End of Treatment (median): 49.7 nmol/L
[9]
  Small HDL particle concentration, Change from Baseline % (median): −3.9%
  Small HDL particle concentration, End of Treatment (median): 23.1 μmon/L
[10]
  Small LDL particle concentration, Change from Baseline % (median): −1.1%
  Small LDL particle concentration, End of Treatment (median): 902.5 nmol/L
[11]
  Small VLDL particle concentration, Change from Baseline % (median): 8.3%
  Small VLDL particle concentration, End of Treatment (median): 46.8 nmol/L
[12]
  Total HDL particle concentration, Median Change From Baseline IPE 4 g/day vs Placebo, %: −7.4%
  Total LDL particle concentration, Median Change From Baseline IPE 4 g/day vs Placebo, %: −7.7%
  Total VLDL particle concentration, Median Change From Baseline IPE 4 g/day vs Placebo, %: −12.2%
IPE 4 g/day vs placebo; 12 weeks; Hodges-Lehmann median; IDL (23-29 nm)
  IDL particle concentration, Median Change From Baseline IPE 4 g/day vs Placebo, %: 10.0%
IPE 4 g/day vs placebo; 12 weeks; Hodges-Lehmann median; large HDL (9.4-14.0 nm)
  Large HDL particle concentration, Median Change From Baseline IPE 4 g/day vs Placebo, %: −31.0%
IPE 4 g/day vs placebo; 12 weeks; Hodges-Lehmann median; large LDL (20.5-23.0 nm)
  Large LDL particle concentration, Median Change From Baseline IPE 4 g/day vs Placebo, %: 34.2%
IPE 4 g/day vs placebo; 12 weeks; Hodges-Lehmann median; large VLDL (>60 nm)
  Large VLDL particle concentration, Median Change From Baseline IPE 4 g/day vs Placebo, %: −46.4%
IPE 4 g/day vs placebo; 12 weeks; Hodges-Lehmann median; medium HDL (8.2-9.4 nm)
  Medium HDL particle concentration, Median Change From Baseline IPE 4 g/day vs Placebo, %: −6.5%
IPE 4 g/day vs placebo; 12 weeks; Hodges-Lehmann median; medium VLDL (42-60 nm)
  Medium VLDL particle concentration, Median Change From Baseline IPE 4 g/day vs Placebo, %: −12.1%
IPE 4 g/day vs placebo; 12 weeks; Hodges-Lehmann median; small HDL (7.3-8.2 nm)
  Small HDL particle concentration, Median Change From Baseline IPE 4 g/day vs Placebo, %: −2.8%
IPE 4 g/day vs placebo; 12 weeks; Hodges-Lehmann median; small LDL (18.0-20.5 nm)
  Small LDL particle concentration, Median Change From Baseline IPE 4 g/day vs Placebo, %: −13.5%
IPE 4 g/day vs placebo; 12 weeks; Hodges-Lehmann median; small VLDL (29-42 nm)
  Small VLDL particle concentration, Median Change From Baseline IPE 4 g/day vs Placebo, %: 2.8%
